Counter-ions that a name gives are not always drawn.
Columns and labels:
WRN [1] = biological target: T1, WRN (Homo sapiens, UniProt Q14191); assay: WRN ATPase activity assay (ADP-Glo); assay type: biochemical; conditions: 1-hr pre-incubation with enzyme; 100 μM ATP, 25 nM forked dsDNA, 1 nM WRN; geometric mean of at least 2 replicates
T1 construct: A His-tagged construct of WRN (AA S2-S1235) was produced and used for the ATPase assay; His tag; made in house; host or cells: Sf9 insect cells (baculovirus, pFastBac1)
T1 sequence (Q14191 2-1235): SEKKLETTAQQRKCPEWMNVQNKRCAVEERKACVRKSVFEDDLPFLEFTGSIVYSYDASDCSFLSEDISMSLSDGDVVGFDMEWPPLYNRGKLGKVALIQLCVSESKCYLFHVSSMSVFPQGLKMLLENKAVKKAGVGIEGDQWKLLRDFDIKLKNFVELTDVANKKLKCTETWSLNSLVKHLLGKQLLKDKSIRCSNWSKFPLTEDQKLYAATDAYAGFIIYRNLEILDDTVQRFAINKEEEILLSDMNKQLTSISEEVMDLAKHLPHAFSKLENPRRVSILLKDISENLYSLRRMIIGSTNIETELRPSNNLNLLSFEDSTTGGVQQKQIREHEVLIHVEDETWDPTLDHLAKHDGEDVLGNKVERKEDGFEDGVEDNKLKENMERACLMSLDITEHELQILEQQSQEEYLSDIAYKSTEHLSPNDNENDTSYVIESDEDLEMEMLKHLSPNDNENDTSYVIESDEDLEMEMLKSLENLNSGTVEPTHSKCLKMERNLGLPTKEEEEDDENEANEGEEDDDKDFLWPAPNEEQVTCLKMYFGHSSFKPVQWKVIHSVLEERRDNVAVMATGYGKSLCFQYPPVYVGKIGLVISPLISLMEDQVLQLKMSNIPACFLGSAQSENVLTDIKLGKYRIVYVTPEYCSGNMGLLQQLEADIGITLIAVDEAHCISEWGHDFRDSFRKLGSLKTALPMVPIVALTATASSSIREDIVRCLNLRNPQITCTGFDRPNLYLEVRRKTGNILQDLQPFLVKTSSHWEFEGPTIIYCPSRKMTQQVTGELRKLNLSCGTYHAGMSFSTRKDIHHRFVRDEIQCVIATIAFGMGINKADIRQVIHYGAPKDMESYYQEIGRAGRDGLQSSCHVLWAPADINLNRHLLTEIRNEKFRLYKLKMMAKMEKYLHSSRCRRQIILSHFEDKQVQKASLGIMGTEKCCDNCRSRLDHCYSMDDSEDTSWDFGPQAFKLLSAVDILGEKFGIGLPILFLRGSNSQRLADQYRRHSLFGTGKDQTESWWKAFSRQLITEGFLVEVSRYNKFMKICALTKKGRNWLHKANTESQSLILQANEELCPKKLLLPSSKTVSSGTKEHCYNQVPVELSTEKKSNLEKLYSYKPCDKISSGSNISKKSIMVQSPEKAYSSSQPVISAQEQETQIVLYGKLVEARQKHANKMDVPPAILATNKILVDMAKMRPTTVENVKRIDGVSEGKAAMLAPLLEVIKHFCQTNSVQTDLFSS
Method: Compounds of the Examples were tested for WRN ATPase activity. WRN ATPase activity catalyzes ATP hydrolysis to produce ADP and phosphate. DNA encoding the target protein, 6×HIS-TEV-WRN-517-945, was produced, cloned and transfected as detailed in Example D. The amount of ADP produced was measured using ADP-Glo™ Kinase Assay kit from Promega Corporation in a Greiner white regular volume 384 wells assay plate (Greiner #781075). Data was normalized to a standard curve generated using various ADP concentrations and the corresponding luminescent signal intensities at each concentration. The assay conditions were optimized for enzyme concentration (WRN), substrate concentrations (ATP & dsDNA), and the linearity of the ATPase reaction, in the following assay buffer: 50 mM Tris-HCl, pH-7.5, 2 mM MgCl2, 50 mM NaCl, 1 mM EGTA, 0.01% P-20, 0.05% BSA, and 2 mM DTT prepared with nuclease free water.
A serial dilution (1:3 scheme) of the compounds were prepared in neat DMSO, with 100 nL of the compounds dispensed in the 384 wells assay plate. An 1-hr pre-incubation of the compounds with enzyme was included. A His-tagged construct of WRN (AA S2-S1235) was produced and used for the ATPase assay. Maximum inhibition control wells were set up with the addition of only assay buffer, and no inhibition control wells were set up with neat DMSO without test compounds. The reaction was initiated by addition of 5 μL substrate mix (200 μM ultrapure ATP, and 50 nM dsDNA prepared in assay buffer) and incubated at 25° C. for 35 min. A forked dsDNA oligomer substrate was prepared by annealing equal amounts of oligo GPat-1 ([BHQ2][…]) and oligo GPat-2 ([…][TAM]) and was used as dsDNA substrate for WRN ATPase assay. A typical ATPase reaction consists of 25 nM forked dsDNA, 100 μM ATP, and 1 nM WRN prepared in assay buffer. The WRN ATPase reaction was stopped by the addition of 5 μL of ADP-Glo Reagent from ADP-Glo™ Kinase Assay kit and incubated for 40 min to deplete the unreacted ATP. Afterwards, 5 μL of Kinase Detection Reagent from the ADP-Glo™ Kinase Assay kit was added and incubated for 1 hr for the development of luminescence signal.
Luminesce signals were measured on BMG PHERAstar FSX using luminescence protocol. Data analysis was carried out using Genedata software following % of control normalization. Fitting parameters include dose response IC50, Hill slope (n), maximum inhibition (S∞), and minimum inhibition (S0). The reported IC50 values for compounds in this invention are the geometric means of at least 2 independent replicates.

WRN [2] = biological target: T1, WRN; assay: WRN helicase activity assay (fluorescence DNA unwinding); assay type: biochemical; conditions: 1-hr pre-incubation with enzyme; 100 μM ATP, 25 nM forked dsDNA, 1 nM WRN; geometric mean of at least 2 replicates
Method: Compounds of the examples were tested for WRN helicase activity. DNA encoding the target protein, 6×HIS-TEV-WRN-517-945, was produced, cloned and transfected as detailed in Example D. To determine the inhibitory properties of the compounds, a 384 wells plate-based Helicase assay was set up to measure the extent of DNA unwinding (Helicase) activity of WRN. The WRN Helicase assay was designed to measure increase in fluorescence signal using a fluorescence based, donor-quencher paired forked dsDNA oligomer substrate (custom synthesis from Sigma-Aldrich) prepared by annealing equal amounts of oligo GPat-1 ([BHQ2][…]) and oligo GPat-2 ([…][TAM]). Continuous measurement of fluorescent signal was used to optimize the buffer conditions, concentration of enzyme (WRN), concentration of substrates (ATP & dsDNA), and the linearity of the Helicase reaction. All solutions were prepared in the following assay buffer: 50 mM Tris-HCl, pH-7.5, 2 mM MgCl2, 50 mM NaCl, 1 mM EGTA, 0.01% P-20, 0.05% BSA, and 2 mM DTT prepared with nuclease free water.
A serial dilution (1:3 scheme) of the compounds was prepared in neat DMSO and 100 nL of the compounds was dispensed in the Greiner black low volume (Greiner #784076) 384 wells assay plate. An 1-hr pre-incubation of the compounds with enzyme was included. A His-tagged construct of WRN (AA S2-S1235) was produced and used for the ATPase assay. Maximum inhibition control wells were set up with the addition of only assay buffer, and no inhibition control wells were set up with neat DMSO without test compounds. The reaction was initiated by addition of 5 μL substrate mix (200 μM ultrapure ATP, and 50 nM dsDNA prepared in assay buffer) and incubated at 25° C. for 35 min. A typical Helicase reaction consists of 25 nM forked dsDNA, 100 μM ATP, and 1 nM WRN prepared in assay buffer. The WRN Helicase reaction was quenched by the addition of 5 μL ‘STOP’ solution containing 100 mM EDTA (final EDTA concentration 33.33 mM) prepared in assay buffer. The plates were read on BMG PHERAstar FSX using 540/590 module to measure an increase of fluorescence. Data analysis was carried out using the Genedata software following % of control normalization. Fitting parameters include dose response IC50, Hill slope (n), maximum inhibition (S∞), and minimum inhibition (S0). The reported IC50 values for compounds in this invention are the geometric means of at least 2 independent replicates.

| IC50 (WRN [1]) | IC50 (WRN [2]) | SMILES |
| --- | --- | --- |
| < 100 nM | < 100 nM | C=CC(=O)Nc1ccccc1-n1c(CC)nc2c(c(C)c(C)n2CC(=O)Nc2ccc(C(F)(F)F)cc2)c1=O [Example 3, N-(2-(2-Ethyl-5,6-dimethyl-4-oxo-7-(2-oxo-2-((4-(trifluoromethyl)phenyl)amino)ethyl)-4,7-dihydro-3H-pyrrolo[2,3-d]pyrimidin-3-yl)phenyl)acrylamide] |
| 1000 to 5000 nM | 1000 to 5000 nM | C=CC(=O)Nc1ccccc1-n1c(CC)nc2c(cnn2CC(=O)Nc2ccc(C(F)(F)F)cc2)c1=O [Example 1, N-(2-(6-Ethyl-4-oxo-1-(2-oxo-2-((4-(trifluoromethyl)phenyl)amino)ethyl)-1,4-dihydro-5H-pyrazolo[3,4-d]pyrimidin-5-yl)phenyl)acrylamide] |
| < 100 nM | < 100 nM | C=CC(=O)Nc1ccccc1-n1c(CC)nc2c(c(C)c(C)n2CC(=O)Nc2ccc(F)cc2)c1=O [Example 5, N-(2-(2-Ethyl-7-(2-((4-fluorophenyl)amino)-2-oxoethyl)-5,6-dimethyl-4-oxo-4,7-dihydro-3H-pyrrolo[2,3-d]pyrimidin-3-yl)phenyl)acrylamide] |
| < 100 nM | < 100 nM | C=CC(=O)Nc1cc(C(=O)NCC)ccc1-n1c(CC)nc2c(c(C)c(C)n2CC(=O)Nc2ccc(C(F)(F)F)cc2)c1=O [Example 6, 3-Acrylamido-N-ethyl-4-(2-ethyl-5,6-dimethyl-4-oxo-7-(2-oxo-2-((4-(trifluoromethyl)phenyl)amino)ethyl)-4,7-dihydro-3H-pyrrolo[2,3-d]pyrimidin-3-yl)benzamide, trifluoroacetate salt] |
| < 100 nM | < 100 nM | C=CS(=O)(=O)Nc1ccccc1-n1c(CC)nc2c(cnn2CC(=O)Nc2ccc(C(F)(F)F)cc2)c1=O [Example 2, 2-(6-Ethyl-4-oxo-5-(2-(vinylsulfonamido)phenyl)-4,5-dihydro-1H-pyrazolo[3,4-d]pyrimidin-1-yl)-N-(4-(trifluoromethyl)phenyl)acetamide] |
| < 100 nM | < 100 nM | C=CC(=O)Nc1ccccc1-n1c(CC)nc2c(c(C)c(C)n2CC(=O)Nc2ccc(C(F)(F)F)cc2Cl)c1=O [Example 4, N-(2-(7-(2-((2-Chloro-4-(trifluoromethyl)phenyl)amino)-2-oxoethyl)-2-ethyl-5,6-dimethyl-4-oxo-4,7-dihydro-3H-pyrrolo[2,3-d]pyrimidin-3-yl)phenyl)acrylamide] |
| < 100 nM | < 100 nM | C=CC(=O)Nc1cc(C(=O)NCC)ccc1-n1c(CC)nc2c(c(C)c(C)n2CC(=O)Nc2ccc(F)cc2)c1=O [Example 7, 3-Acrylamido-N-ethyl-4-(2-ethyl-7-(2-((4-fluorophenyl)amino)-2-oxoethyl)-5,6-dimethyl-4-oxo-4,7-dihydro-3H-pyrrolo[2,3-d]pyrimidin-3-yl)benzamide, trifluoroacetate salt] |
